# Assays:
# [1] = target: Protein kinase C beta type (Homo sapiens, UniProt P05771); test: Selectivity interaction (ProQinase) EUB0000171b PRKCB; conditions: at 5 µM
# Melanocortin receptor 3 = Melanocortin receptor 3 (Homo sapiens, UniProt P41968); test: Selectivity interaction (Melanocortin MC3 receptor binding assay, human recombinant ) EUB0000877a MC3R
# [2] = target: T1, Mitogen-activated protein kinase kinase kinase 15 (Homo sapiens) (UniProt Q6ZN16); test: Selectivity interaction (KinomeScan (DiscoverX)) EUB0000607a MAP3K15; conditions: at 10 µM
# T1 sequence (whole entry): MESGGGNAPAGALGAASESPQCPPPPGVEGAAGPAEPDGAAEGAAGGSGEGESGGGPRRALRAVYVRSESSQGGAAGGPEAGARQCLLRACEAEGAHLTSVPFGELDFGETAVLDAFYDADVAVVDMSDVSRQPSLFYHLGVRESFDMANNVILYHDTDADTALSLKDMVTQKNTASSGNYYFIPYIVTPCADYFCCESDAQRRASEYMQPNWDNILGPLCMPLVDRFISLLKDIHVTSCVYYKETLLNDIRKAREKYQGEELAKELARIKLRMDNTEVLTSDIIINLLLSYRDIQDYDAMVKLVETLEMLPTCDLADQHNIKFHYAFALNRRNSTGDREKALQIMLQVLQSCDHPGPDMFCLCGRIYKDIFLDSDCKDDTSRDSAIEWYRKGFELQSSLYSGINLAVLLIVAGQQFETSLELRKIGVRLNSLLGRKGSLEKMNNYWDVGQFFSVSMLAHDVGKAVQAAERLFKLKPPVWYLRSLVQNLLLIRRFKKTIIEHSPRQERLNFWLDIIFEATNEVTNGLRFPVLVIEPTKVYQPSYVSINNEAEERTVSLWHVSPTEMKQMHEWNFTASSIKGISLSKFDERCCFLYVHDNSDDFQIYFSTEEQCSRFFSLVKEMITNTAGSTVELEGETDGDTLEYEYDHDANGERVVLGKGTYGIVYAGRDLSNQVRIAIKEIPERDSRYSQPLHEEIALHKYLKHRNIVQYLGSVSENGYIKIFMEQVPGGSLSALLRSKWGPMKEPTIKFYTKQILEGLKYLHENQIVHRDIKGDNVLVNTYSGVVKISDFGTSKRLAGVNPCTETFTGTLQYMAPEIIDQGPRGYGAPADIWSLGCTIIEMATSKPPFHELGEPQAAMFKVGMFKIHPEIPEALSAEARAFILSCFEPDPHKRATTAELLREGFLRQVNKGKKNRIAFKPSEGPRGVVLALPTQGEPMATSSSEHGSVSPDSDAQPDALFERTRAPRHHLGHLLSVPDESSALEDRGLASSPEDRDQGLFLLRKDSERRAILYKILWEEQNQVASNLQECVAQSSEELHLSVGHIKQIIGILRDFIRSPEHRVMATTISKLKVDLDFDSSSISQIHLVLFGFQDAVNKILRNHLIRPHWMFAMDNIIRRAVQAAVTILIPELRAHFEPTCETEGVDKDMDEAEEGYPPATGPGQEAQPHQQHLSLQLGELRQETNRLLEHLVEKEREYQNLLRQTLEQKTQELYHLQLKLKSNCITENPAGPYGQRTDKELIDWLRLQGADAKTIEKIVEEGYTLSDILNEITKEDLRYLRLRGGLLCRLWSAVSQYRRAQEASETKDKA
# [3] = target: Ribosomal protein S6 kinase alpha-3 (Homo sapiens, UniProt P51812); test: Selectivity interaction (KinomeScan (DiscoverX)) EUB0000595a RPS6KA3; conditions: at 10 µM
# [4] = target: T2, Serine/threonine-protein kinase ULK2 (Homo sapiens) (UniProt Q8IYT8); test: Selectivity interaction (KinomeScan (DiscoverX)) EUB0000595a ULK2; conditions: at 10 µM
# T2 sequence (whole entry): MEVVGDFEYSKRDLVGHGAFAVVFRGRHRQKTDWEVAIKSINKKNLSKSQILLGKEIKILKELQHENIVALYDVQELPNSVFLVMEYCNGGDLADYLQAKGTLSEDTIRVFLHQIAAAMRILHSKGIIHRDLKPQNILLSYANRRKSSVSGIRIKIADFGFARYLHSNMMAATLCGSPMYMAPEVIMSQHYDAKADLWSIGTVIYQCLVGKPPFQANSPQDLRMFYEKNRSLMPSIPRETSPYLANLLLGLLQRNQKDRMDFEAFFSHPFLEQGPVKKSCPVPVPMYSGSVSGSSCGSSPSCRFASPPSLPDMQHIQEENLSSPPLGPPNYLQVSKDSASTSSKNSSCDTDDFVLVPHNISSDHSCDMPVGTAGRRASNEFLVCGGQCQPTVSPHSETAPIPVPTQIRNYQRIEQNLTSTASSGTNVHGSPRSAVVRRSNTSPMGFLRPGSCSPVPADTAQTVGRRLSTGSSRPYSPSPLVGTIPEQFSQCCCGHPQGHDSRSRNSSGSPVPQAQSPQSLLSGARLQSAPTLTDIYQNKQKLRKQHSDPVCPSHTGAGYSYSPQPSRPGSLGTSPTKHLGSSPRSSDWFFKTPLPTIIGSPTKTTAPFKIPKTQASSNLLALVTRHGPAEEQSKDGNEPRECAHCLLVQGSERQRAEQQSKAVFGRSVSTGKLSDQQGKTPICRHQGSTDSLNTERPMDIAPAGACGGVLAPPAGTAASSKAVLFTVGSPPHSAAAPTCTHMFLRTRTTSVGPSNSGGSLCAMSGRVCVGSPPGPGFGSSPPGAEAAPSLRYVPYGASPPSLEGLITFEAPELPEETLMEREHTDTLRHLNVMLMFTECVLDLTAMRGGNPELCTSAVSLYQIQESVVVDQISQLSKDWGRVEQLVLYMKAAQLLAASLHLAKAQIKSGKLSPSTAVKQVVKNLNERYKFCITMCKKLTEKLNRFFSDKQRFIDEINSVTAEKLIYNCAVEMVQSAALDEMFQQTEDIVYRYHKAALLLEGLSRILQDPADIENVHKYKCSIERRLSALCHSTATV
# [5] = target: Cannabinoid receptor 2 (Homo sapiens) (UniProt P34972); test: Selectivity interaction (Eurofins CEREP Diversity Profile (receptors and ion channels)) EUB0000279b CNR2; conditions: at 10 µM
# Sequence of Cannabinoid receptor 2 (Homo sapiens) (P34972 whole entry): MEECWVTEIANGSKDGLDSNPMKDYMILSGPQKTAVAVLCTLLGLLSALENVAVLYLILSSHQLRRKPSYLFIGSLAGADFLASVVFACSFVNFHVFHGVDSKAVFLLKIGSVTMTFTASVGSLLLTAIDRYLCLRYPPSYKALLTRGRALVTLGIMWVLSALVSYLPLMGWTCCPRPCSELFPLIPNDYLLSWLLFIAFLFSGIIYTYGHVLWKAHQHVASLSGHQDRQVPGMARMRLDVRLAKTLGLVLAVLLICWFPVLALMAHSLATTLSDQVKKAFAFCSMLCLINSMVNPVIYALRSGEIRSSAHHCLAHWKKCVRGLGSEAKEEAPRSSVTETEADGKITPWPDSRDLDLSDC
# Sequence of Protein kinase C beta type (P05771 2-671 limits assumed): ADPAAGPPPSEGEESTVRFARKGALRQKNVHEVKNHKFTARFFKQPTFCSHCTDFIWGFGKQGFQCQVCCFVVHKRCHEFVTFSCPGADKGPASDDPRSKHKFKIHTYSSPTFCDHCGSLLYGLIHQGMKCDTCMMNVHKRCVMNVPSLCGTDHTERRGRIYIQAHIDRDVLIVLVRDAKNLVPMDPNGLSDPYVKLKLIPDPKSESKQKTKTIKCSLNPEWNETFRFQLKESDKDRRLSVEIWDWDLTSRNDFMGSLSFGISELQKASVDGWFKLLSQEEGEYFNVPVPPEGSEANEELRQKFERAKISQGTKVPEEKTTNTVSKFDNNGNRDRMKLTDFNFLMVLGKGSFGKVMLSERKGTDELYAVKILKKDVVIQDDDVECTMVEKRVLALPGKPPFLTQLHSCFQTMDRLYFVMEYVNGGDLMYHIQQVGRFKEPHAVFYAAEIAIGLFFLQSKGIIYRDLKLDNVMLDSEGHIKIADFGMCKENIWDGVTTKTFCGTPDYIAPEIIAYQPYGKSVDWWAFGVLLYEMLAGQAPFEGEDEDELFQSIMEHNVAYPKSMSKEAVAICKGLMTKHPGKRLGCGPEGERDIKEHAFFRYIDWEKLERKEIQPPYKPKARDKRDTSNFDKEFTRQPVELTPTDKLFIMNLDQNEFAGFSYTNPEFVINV
# Sequence of Melanocortin receptor 3 (P41968 whole entry): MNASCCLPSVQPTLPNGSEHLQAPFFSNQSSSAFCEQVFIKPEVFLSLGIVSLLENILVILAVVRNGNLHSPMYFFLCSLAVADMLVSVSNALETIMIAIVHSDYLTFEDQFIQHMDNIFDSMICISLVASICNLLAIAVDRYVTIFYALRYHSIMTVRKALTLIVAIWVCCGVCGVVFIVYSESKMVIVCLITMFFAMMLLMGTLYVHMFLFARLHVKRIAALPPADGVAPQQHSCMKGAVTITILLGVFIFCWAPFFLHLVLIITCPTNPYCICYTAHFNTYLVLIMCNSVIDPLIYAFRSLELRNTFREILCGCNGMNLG
# Sequence of Ribosomal protein S6 kinase alpha-3 (P51812 whole entry): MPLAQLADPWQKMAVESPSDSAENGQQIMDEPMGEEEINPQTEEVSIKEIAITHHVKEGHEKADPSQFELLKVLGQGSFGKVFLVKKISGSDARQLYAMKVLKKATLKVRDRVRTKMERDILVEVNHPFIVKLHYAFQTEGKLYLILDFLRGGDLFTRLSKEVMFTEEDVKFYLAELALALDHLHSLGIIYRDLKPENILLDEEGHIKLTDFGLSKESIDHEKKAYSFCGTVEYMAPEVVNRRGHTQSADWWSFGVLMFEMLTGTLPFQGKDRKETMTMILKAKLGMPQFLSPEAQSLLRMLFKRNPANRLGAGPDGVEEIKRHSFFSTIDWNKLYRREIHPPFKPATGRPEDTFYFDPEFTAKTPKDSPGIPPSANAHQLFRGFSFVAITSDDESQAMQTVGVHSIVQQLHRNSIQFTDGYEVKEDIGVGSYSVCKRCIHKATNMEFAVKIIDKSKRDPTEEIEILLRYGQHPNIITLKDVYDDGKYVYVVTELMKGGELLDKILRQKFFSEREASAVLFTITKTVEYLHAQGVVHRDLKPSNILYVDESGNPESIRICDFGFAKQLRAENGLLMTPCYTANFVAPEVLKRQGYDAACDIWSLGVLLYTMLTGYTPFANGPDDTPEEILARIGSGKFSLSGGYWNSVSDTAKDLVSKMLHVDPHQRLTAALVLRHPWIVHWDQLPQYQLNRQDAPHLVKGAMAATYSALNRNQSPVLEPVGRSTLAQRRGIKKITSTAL
structure (smiles),measurement,setting,value
C=CC(=O)Nc1cccc(C(=O)Nc2ccc(Nc3cc(-c4[nH]c(SC)nc4C)ccn3)cc2)c1,% of control,[1],81%
CCC(=O)N1CC[C@H](Nc2ncnc3c2CN(c2cnc(OC)c(C(F)(F)F)c2)CC3)C1 [LENIOLISIB],IC50,Melanocortin receptor 3,> 30 µM
CNC(=O)Nc1ccc(-c2nc(N3CC4CCC(C3)O4)c3cnn(C4CCC5(CC4)OCCO5)c3n2)cc1,% of control,[2],100%
COCC(=O)NC/C=C/c1ccc2ncnc(Nc3ccc(Oc4ccc(C)nc4)c(C)c3)c2c1 [CP-724714],% of control,[3],92%
same,% of control,[4],100%
CC(=O)c1cc(-c2ccccc2OCC2CC2)c2ncccn12,% of control,[5],107%

# Reference: ChEMBL document CHEMBL5465560, “Selectivity Literature for EUbOPEN Chemogenomic Library” (2024)
